Assay results from patent US20160108027A1, “SUBSTITUTED BENZOXAZOLES” (BAYER PHARMA AKTIENGESELLSCHAFT, priority 2013, published 2016).

Key:
thrombin [1] = target: T1, thrombin (Homo sapiens, UniProt P00734); assay: Measurement of the thrombin inhibition in buffer; format: biochemical; conditions: human thrombin 0.06 nmol/l in Tris buffer pH 7.4, 22° C., substrate Boc-Asp(OBzl)-Pro-Arg-AMC; in some cases means of individual determinations
Protocol: To determine the thrombin inhibition of the substances listed above, a biochemical test system is constructed in which the conversion of a thrombin substrate is used for determining the enzymatic activity of human thrombin. Here, thrombin cleaves aminomethylcoumarin, which is measured fluorescently, from the peptic substrate. The determinations are carried out in microtitre plates.
Substances to be tested are dissolved in various concentrations in dimethyl sulphoxide and incubated for 15 min with human thrombin (0.06 nmol/l dissolved in 50 mmol/l of Tris buffer [C,C,C-tris(hydroxymethyl)aminomethane], 100 mmol/l of sodium chloride, 0.1% BSA [bovine serum albumin], pH 7.4) at 22° C. The substrate (5 μmol/l Boc-Asp(OBzl)-Pro-Arg-AMC from Bachem) is then added. After 30 min of incubation, the sample is excited at a wavelength of 360 nm and the emission is measured at 460 nm. The measured emissions of the test mixtures with test substance are compared to the control mixtures without test substance (only dimethyl sulphoxide instead of test substance in dimethyl sulphoxide) and IC50 values are calculated from the concentration/activity relationships. Representative activity data from this test are given in Table 1 below (in some cases as means of individual determinations): […]

thrombin [2] = target: T1, thrombin; assay: Determination of the thrombin-inhibitory activity in plasma samples (ecarin-activated); format: biochemical; conditions: citrate plasma, ecarin activation, fluorogenic thrombin substrate; in some cases means of individual determinations
Protocol: To determine the inhibition of thrombin in plasma samples, plasma […] is activated by ecarin. Thrombin activity and/or its inhibition by potential inhibitors is/are then measured fluorenscently by addition of a substrate.
The substances to be tested are dissolved in various concentrations in dimethyl sulphoxide and diluted with water. In white 96-well flat-bottomed plates, 20 μl of substance dilution are mixed with 20 μl of ecarin solution (ecarin reagent, from Sigma E-0504, final concentration 20 mU per reaction) in Ca buffer (200 mM Hepes+560 mM sodium chloride+10 mM calcium chloride+0.4% PEG) or with 20 μl of Ca buffer (as unstimulated control). Furthermore, 20 μl of fluorogenic thrombin substrate (from Bachem 1-1120, final concentration 50 μmol/1) and 20 μl of citrate plasma (from Octapharma) are added, and the mixture is homogenized well. The plate is measured in a SpectraFluorplus Reader using a 360 nm excitation filter and a 465 nm emission filter every minute over 20 minutes. […] Representative activity data from this test are given in Table 2 below (in some cases as means of individual determinations): […]

**Q.** With `COc1cc(C(=O)N2CC(C)OCC23CC(O)C3)cc2nc(NCc3cc(Cl)ccn3)oc12` (single isomer, unassigned) [Example 53, (2-{[(4-Chloropyridin-2-yl)methyl]amino}-7-methoxy-1,3-benzoxazol-5-yl)(2-hydroxy-7-methyl-8-oxa-5-azaspiro[3.5]non-5-yl)methanone] as the molecule, how does the IC50 (thrombin [1]) read?
**A.** The IC50 was 36 nM.

**Q.** And the IC50 (thrombin [2])?
**A.** The IC50 was 49 nM.

**Q.** How did the IC50 (thrombin [1]) turn out when `COc1cc(C(=O)N2CC(C)OCC2CC(C)(C)O)cc2nc(NCc3cc(Cl)ccn3)oc12` (single isomer, unassigned) [Example 56, (2-{[(4-Chloropyridin-2-yl)methyl]amino}-7-methoxy-1,3-benzoxazol-5-yl) [5-(2-hydroxy-2-methylpropyl)-2-methylmorpholin-4-yl]methanone] was run?
**A.** Its IC50 is 25 nM.

**Q.** What about the IC50 (thrombin [2]) of the same molecule?
**A.** The IC50 was 57 nM.

**Q.** How did the IC50 (thrombin [1]) turn out when `COc1cc(C(=O)N2CC(C)OCC2CC(C)(C)O)cc2nc(NCc3cc(Cl)ccn3)oc12` (single isomer, unassigned) [Example 57, (2-{[(4-Chloropyridin-2-yl)methyl]amino}-7-methoxy-1,3-benzoxazol-5-yl) [5-(2-hydroxy-2-methylpropyl)-2-methylmorpholin-4-yl]methanone] was run?
**A.** The IC50 was 20 nM.

**Q.** And the IC50 (thrombin [2])?
**A.** Its IC50 is 30 nM.

**Q.** With `COc1cc(C(=O)N2CC(C)(CCO)OCC2COC(F)F)cc2nc(NCc3cc(Cl)ccn3)oc12` (single isomer, unassigned) [Example 60, (2-{[(4-Chloropyridin-2-yl)methyl]amino}-7-methoxy-1,3-benzoxazol-5-yl){5-[(difluoromethoxy)methyl]-2-(2-hydroxyethyl)-2-methylmorpholin-4-yl}methanone] as the molecule, how does the IC50 (thrombin [1]) read?
**A.** Its IC50 is 5.2 nM.

**Q.** What about the IC50 (thrombin [2]) of the same molecule?
**A.** Its IC50 is 24 nM.

**Q.** Which IC50 (thrombin [1]) does the source give for `COc1cc(C(=O)N2CCOC(C)(CC(C)O)C2)cc2nc(NCc3cc(Cl)ccn3)oc12` (single isomer, unassigned) [Example 61, (2-{[(4-Chloropyridin-2-yl)methyl]amino}-7-methoxy-1,3-benzoxazol-5-yl) [2-(2-hydroxypropyl)-2-methylmorpholin-4-yl]methanone] here?
**A.** Its IC50 is 24 nM.

**Q.** And the IC50 (thrombin [2])?
**A.** The IC50 was 100 nM.

**Q.** How did the IC50 (thrombin [1]) turn out when `COc1cc(C(=O)N2CC(C)(C)OCC2CC(C)O)cc2nc(NCc3cc(Cl)ccn3)oc12` (single isomer, unassigned) [Example 62, (2-{[(4-Chloropyridin-2-yl)methyl]amino}-7-methoxy-1,3-benzoxazol-5-yl) [5-(2-hydroxypropyl)-2,2-dimethylmorpholin-4-yl]methanone] was run?
**A.** The IC50 was 68 nM.

**Q.** And the IC50 (thrombin [2])?
**A.** Its IC50 is 107 nM.

**Q.** Which results are given for `COc1cc(C(=O)N2CC(C)(C)OCC2CC(C)O)cc2nc(NCc3cc(Cl)ccn3)oc12` (single isomer, unassigned) [Example 63, (2-{[(4-Chloropyridin-2-yl)methyl]amino}-7-methoxy-1,3-benzoxazol-5-yl) [5-(2-hydroxypropyl)-2,2-dimethylmorpholin-4-yl]methanone]?
**A.** IC50 (thrombin [1]): 11 nM; IC50 (thrombin [2]): 20 nM

**Q.** Which IC50 (thrombin [1]) does the source give for `COc1cc(C(=O)N2CC(C)(C)OCC2CC(C)O)cc2nc(NCc3cc(Cl)ccn3)oc12` (single isomer, unassigned) [Example 65, (2-{[(4-Chloropyridin-2-yl)methyl]amino}-7-methoxy-1,3-benzoxazol-5-yl) [5-(2-hydroxypropyl)-2,2-dimethylmorpholin-4-yl]methanone] here?
**A.** The IC50 was 24 nM.

**Q.** What about the IC50 (thrombin [2]) of the same molecule?
**A.** Its IC50 is 61 nM.

**Q.** Which results are given for `COc1cc(C(=O)N2CC(C)OCC2CC(C)O)cc2nc(NCc3cc(Cl)ccn3)oc12` (single isomer, unassigned) [Example 67, (2-{[(4-Chloropyridin-2-yl)methyl]amino}-7-methoxy-1,3-benzoxazol-5-yl) [5-(2-hydroxypropyl)-2-methylmorpholin-4-yl]methanone]?
**A.** IC50 (thrombin [1]): 16 nM; IC50 (thrombin [2]): 38 nM

**Q.** Which results are given for `COc1cc(C(=O)N2CC(C)OCC2CCO)cc2nc(NCc3cc(Cl)ccn3)oc12` (single isomer, unassigned) [Example 72, (2-{[(4-Chloropyridin-2-yl)methyl]amino}-7-methoxy-1,3-benzoxazol-5-yl) [5-(2-hydroxyethyl)-2-methylmorpholin-4-yl]methanone]?
**A.** IC50 (thrombin [1]): 29 nM; IC50 (thrombin [2]): 37 nM

**Q.** For `COCC1C(=O)N2CCC2CN1C(=O)c1cc(OC)c2oc(NCc3cc(Cl)ccn3)nc2c1` (single isomer, unassigned) [Example 74, 4-[(2-{[(4-Chloropyridin-2-yl)methyl]amino}-7-methoxy-1,3-benzoxazol-5-yl)carbonyl]-3-(methoxymethyl)-1,4-diazabicyclo[4.2.0]octan-2-one], which IC50 (thrombin [1]) is on record?
**A.** Its IC50 is 32 nM.

**Q.** And the IC50 (thrombin [2])?
**A.** Its IC50 is 56 nM.

**Q.** How did the IC50 (thrombin [1]) turn out when `COc1cc(C(=O)N2CC3CCN3C(=O)C2C)cc2nc(NCc3cc(Cl)ccn3)oc12` (single isomer, unassigned) [Example 75, 4-[(2-{[(4-Chloropyridin-2-yl)methyl]amino}-7-methoxy-1,3-benzoxazol-5-yl)carbonyl]-3-methyl-1,4-diazabicyclo[4.2.0]octan-2-one] was run?
**A.** Its IC50 is 32 nM.

**Q.** What about the IC50 (thrombin [2]) of the same molecule?
**A.** The IC50 was 48 nM.

**Q.** For `COc1cc(C(=O)N2CC3(CC3)NC(=O)C2C)cc2nc(NCc3cc(Cl)ccn3)oc12` (single isomer, unassigned) [Example 77, 7-[(2-{[(4-Chloropyridin-2-yl)methyl]amino}-7-methoxy-1,3-benzoxazol-5-yl)carbonyl]-6-methyl-4,7-diazaspiro[2.5]octan-5-one], which IC50 (thrombin [1]) is on record?
**A.** Its IC50 is 14 nM.

**Q.** What about the IC50 (thrombin [2]) of the same molecule?
**A.** The IC50 was 23 nM.

**Q.** With `CCC1C(=O)NC2(CC2)CN1C(=O)c1cc(OC)c2oc(NCc3cc(Cl)ccn3)nc2c1` (single isomer, unassigned) [Example 79, 7-[(2-{[(4-Chloropyridin-2-yl)methyl]amino}-7-methoxy-1,3-benzoxazol-5-yl)carbonyl]-6-ethyl-4,7-diazaspiro[2.5]octan-5-one] as the molecule, how does the IC50 (thrombin [1]) read?
**A.** Its IC50 is 4.5 nM.

**Q.** What about the IC50 (thrombin [2]) of the same molecule?
**A.** The IC50 was 14 nM.

**Q.** With `CCC1C(=O)NC(C)CN1C(=O)c1cc(OC)c2oc(NCc3cc(Cl)ccn3)nc2c1` (single isomer, unassigned) [Example 80, 4-[(2-{[(4-Chloropyridin-2-yl)methyl]amino}-7-methoxy-1,3-benzoxazol-5-yl)carbonyl]-3-ethyl-6-methylpiperazin-2-one] as the molecule, how does the IC50 (thrombin [1]) read?
**A.** The IC50 was 16 nM.

**Q.** And the IC50 (thrombin [2])?
**A.** Its IC50 is 16 nM.

**Q.** `CCC1C(=O)NC(C)CN1C(=O)c1cc(OC)c2oc(NCc3cc(Cl)ccn3)nc2c1` (single isomer, unassigned) [Example 81, 4-[(2-{[(4-Chloropyridin-2-yl)methyl]amino}-7-methoxy-1,3-benzoxazol-5-yl)carbonyl]-3-ethyl-6-methylpiperazin-2-one] was tested. Which IC50 (thrombin [1]) did it give?
**A.** Its IC50 is 12 nM.

**Q.** What about the IC50 (thrombin [2]) of the same molecule?
**A.** The IC50 was 32 nM.

**Q.** What does the source list for `COc1cc(C(=O)N2CC(C)(C)NC(=O)C2CC#N)cc2nc(NCc3cc(Cl)ccn3)oc12` (single isomer, unassigned) [Example 84, {1-[(2-{[(4-chloropyridin-2-yl)methyl]amino}-7-methoxy-1,3-benzoxazol-5-yl)carbonyl]-5,5-dimethyl-3-oxopiperazin-2-yl}acetonitrile]?
**A.** IC50 (thrombin [1]): 11 nM; IC50 (thrombin [2]): 21 nM

**Q.** How did the IC50 (thrombin [1]) turn out when `COc1cc(C(=O)N2CC(C)CCC2CCO)cc2nc(NCc3cc(Cl)ccn3)oc12` (single isomer, unassigned) [Example 85, (2-{[(4-Chloropyridin-2-yl)methyl]amino}-7-methoxy-1,3-benzoxazol-5-yl) [2-(2-hydroxyethyl)-5-methylpiperidin-1-yl]methanone] was run?
**A.** The IC50 was 17 nM.

**Q.** And the IC50 (thrombin [2])?
**A.** The IC50 was 47 nM.
